Experimental findings from patent publication US12060333B2 (Hoffmann-La Roche Inc., priority 2021, dated 2024) are described below.

Each structure is given as a SMILES string. Values joined by “and” are separate entries in the source; they are usually repeats but may differ in a detail not shown here. Identical values can stand only once. Like-named read-outs stand apart in the source and are kept apart here.

The target in one experiment is HCoV-229E 3CLpro (Human coronavirus 229E, UniProt P0C6X1). In words: HCoV-229E 3CLpro inhibition assay (FRET). As to conditions: protease 25 nM, FRET substrate 15 μM, pre-incubated 1 hr, read-out: 229E (activity in different coronaviruses). Format: biochemical. How it is done: HCoV-229E 3CL^pro inhibition assay
The HCoV-229E 3CL^pro was expressed in E. coli BL21 (DE3) with the protein sequence of
For the HCoV-229E 3CL^pro assay, 2 μL of […] recombinant HCoV-229E 3CL protease were mixed with serial dilutions of each compound in 4 μL assay buffer containing 40 mM HEPES, pH=8.0, 1 mM CHAPS, 150 mM NaCl, 1 mM EDTA, 1 mM TCEP in a well of a 384-well plate and pre-incubated at rt for 1 hr. The custom-synthesized fluorogenic 3CL^pro peptide substrate used in the assay is as follows: FAM-[…]-TAMRA (peptide sequence according to SEQ ID NO: 3). This FRET-based substrate contains a FAM fluorophore attached at the N-terminus of a canonical 3CL^pro peptide substrate. The fluorophore is internally quenched by the TAMRA. The reaction was initiated by the addition of 10 μL of the substrate with a final concentration of 15 μM and each well was incubated at RT for 30 mins. The final concentration of the protease used at the assay was 25 nM and each compound was at a final concentration range of 100-0.0016 μM. The IC50 value which is the value causing 50% inhibition of the catalytic activity of the HCoV-229E 3CL^pro was calculated by four parameters equation analysis.

A further experiment addresses MERS-CoV 3CLpro (Middle East respiratory syndrome-related coronavirus, UniProt K9N7C7). Put plainly: biochemical.
For a further experiment, the target named is SARS-CoV 3CLpro (Severe acute respiratory syndrome coronavirus, UniProt P0C6X7). In words: biochemical.
The target of a further experiment is SARS-CoV-2 3CLpro (Severe acute respiratory syndrome coronavirus 2, UniProt P0DTD1). Put plainly: biochemical.
The mark [1] stands for this setting: IC50 (μM), SARS-CoV-2 3CLPro assay.
Setting [2] is: read-out: IC50 (μM), SARS-CoV-2 3CLPro assay.

Turning to `CC1(C[C@H](NC(=O)c2cc(C(F)F)on2)C(=O)NN(C[C@@H]2CCNC2=O)C(=O)[C@H](F)Cl)CC1` [Example 100, N-[(1S)-2-[2-[(2R)-2-chloro-2-fluoro-acetyl]-2-[[(3S)-2-axopyrrolidin-3-yl]methyl]hydrazino]-1-[(1-methylcyclopropyl)methyl]-2-axo-ethyl]-5-(difluoromethyl)isoxazole-3-carboxamide], the IC50 was determined as 28 nM at HCoV-229E 3CLpro, 94 nM on MERS-CoV 3CLpro, 31 nM at SARS-CoV 3CLpro and 0.024 µM against SARS-CoV-2 3CLpro (setting [1]).

In the case of `CC(C)C[C@H](NC(=O)c1cc2ccccc2[nH]1)C(=O)NN(C[C@@H]1CCNC1=O)C(=O)CCl` (single isomer, unassigned) [Example 51-A], the IC50 is 17 nM on HCoV-229E 3CLpro; 60 nM on MERS-CoV 3CLpro; 15 nM on SARS-CoV 3CLpro; 0.004 µM and 0.0027 µM at SARS-CoV-2 3CLpro (setting [1]).

Regarding `CC(C)C[C@H](NC(=O)c1cc2ccccc2[nH]1)C(=O)NN(CCC(N)=O)C(=O)CCl` [Example 28, N-[(1S)-1-[[(3-amino-3-oxo-propyl)-(2-chloroacetyl)amino]carbamoyl]-3-methyl-butyl]-1H-indole-2-carboxamide], the IC50 is 13 nM on HCoV-229E 3CLpro, 50 nM on MERS-CoV 3CLpro, 16 nM against SARS-CoV 3CLpro and 0.007 µM at SARS-CoV-2 3CLpro (setting [2]).

On to `Cc1cc(C(=O)N[C@@H](CCC(C)C)C(=O)NN(C[C@@H]2CCNC2=O)C(=O)[C@H](F)Cl)no1` [Example 101, N-[(1S)-1-[[[(2R)-2-chloro-2-fluoro-acetyl]-[[(3S)-2-axopyrrolidin-3-yl]methyl]amino]carbamoyl]-4-methyl-pentyl]-5-methyl-isoxazole-3-carboxamide], for which the IC50 on HCoV-229E 3CLpro was 74 nM; at MERS-CoV 3CLpro it was 320 nM; at SARS-CoV 3CLpro (read-out: SARS (activity in different coronaviruses)) it was 160 nM; on SARS-CoV-2 3CLpro (setting [2]) it was 0.09 µM.
